The source of these data is PMC7997579, “Synthetic Lethality in Pancreatic Cancer: Discovery of a New RAD51-BRCA2 Small Molecule Disruptor That Inhibits Homologous Recombination and Synergizes with Olaparib” (Journal of Medicinal Chemistry, 2020).

One experiment deals with T1, recombinant human RAD51 (Homo sapiens, UniProt Q06609).
T1 construct: made in house; host or cells: E. coli Rosetta2(DE3)pLysS, pET15b-His-hRAD51
T1 sequence (Q06609 1-339): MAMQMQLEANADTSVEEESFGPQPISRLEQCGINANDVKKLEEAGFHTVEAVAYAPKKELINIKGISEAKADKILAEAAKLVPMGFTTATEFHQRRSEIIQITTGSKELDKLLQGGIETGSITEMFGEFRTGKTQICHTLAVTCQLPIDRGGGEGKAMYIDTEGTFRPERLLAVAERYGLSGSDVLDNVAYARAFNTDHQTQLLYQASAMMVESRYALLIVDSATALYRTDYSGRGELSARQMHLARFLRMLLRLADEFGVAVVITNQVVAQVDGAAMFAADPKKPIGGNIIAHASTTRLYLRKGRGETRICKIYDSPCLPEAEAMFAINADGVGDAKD
Briefly: Microscale thermophoresis (MST) binding assay. Particulars: labeled His-hRAD51, 35d up to 40 μM, three replicates, read-out: Kd (RAD51-35d interaction). On the procedure:
To further assess the physical interaction between 35d and RAD51, a microscale thermophoresis (MST) assay was performed on the recombinant human RAD51 (see Experimental Section). The binding assay allowed us to determine the dissociation constant (Kd) for the RAD51-35d interaction and binding. […] This is in agreement with the ELISA assay, supporting the initial hypothesis that 35d could act as a RAD51-BRCA2 disruptor.
The recombinant protein hRAD51 was labeled with the Monolith His-Tag labeling kit RED-tris-NTA 2nd Generation kit (NanoTemper Technologies). MST measurements were simultaneously performed on 16 capillaries containing a constant concentration (25 nM) of labeled RED-tris-NTA 2nd Generation His-hRAD51 protein and 16 different concentrations of 35d in order to determine a concentration-dependent MST binding curve. The highest 35d concentration tested was 40 μM. Measurements were carried out in MST buffer (20 mM Hepes (pH 8.00), 250 mM KCl, 0.1 mM EDTA, 5% (v/v) glycerol, 5% DMSO).

A further experiment has as its system RAD51 in BxPC-3 nuclei. Briefly: Immunofluorescence of RAD51 nuclear localization after cisplatin. The class given is cell-based, human. Particulars: BxPC-3, 50 μM cisplatin in association with 20 μM 35d. On the procedure: Immunofluorescence was used for studying RAD51 nuclear translocation and for evaluating DNA damage through the detection of γH2AX nuclear foci. To visualize RAD51 in cell nuclei, BxPC-3 cells were seeded on glass coverslips placed in a 6-well culture plate (2 × 10^5 cells/well) and allowed to adhere overnight. Cultures were then preincubated with 20 μM 35d for 1 h and subsequently exposed to 50 μM cisplatin for an additional 1.5 h. Medium was removed, and cells were maintained in the presence of 20 μM 35d for 4 h. After this time, cultures growing on coverslips were fixed in PBS containing 1% formalin for 20 min, permeabilized in 70% ethanol, air-dried, and washed twice with PBS. Samples were incubated in 10% bovine serum albumin (BSA) in PBS for 30 min at 37 °C and subsequently exposed to an anti-RAD51 mouse monoclonal antibody (Santa Cruz Biotechnology, 1:1000 in 5% BSA/PBS) overnight at 4 °C. After washing, coverslips were incubated with an anti-mouse FITC-conjugated secondary antibody (1:1000 in 1% BSA/PBS) for 1 h at 37 °C, washed, air-dried, and mounted with a solution of DAPI (2 μg/mL) and DABCO.

Another experiment addresses T2, BRC4–RAD51 interaction (Homo sapiens, UniProt Q06609).
T2 construct: purchased Creative Biomart (RAD51); Life Technologies (BRC4 peptide)
T2 sequence (Q06609 1-339): T1 sequence (Q06609 1-339)
Briefly: Competitive biochemical ELISA assay (biotinylated BRC4 peptide vs RAD51). The class given is binding. Summed up:
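Plates coated with N-terminally biotinylated BRC4 peptide were blocked (1% BSA/PBST) and hybridised overnight with human RAD51. Compounds were tested from 0.01 to 100 μM in triplicate (1% DMSO); bound RAD51 was detected by anti-RAD51 and HRP-secondary antibodies with TMB colorimetric read-out.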
A general note: An ELISA detects its analyte on a solid surface through an enzyme-linked reagent.

A further experiment deals with BxPC3 cells. The experiment in a line: Micronuclei visualization. It is filed as cell-based, human. Particulars: BxPC3, 72 h, 20 μM 35d + 10 μM olaparib vs single agents; p <0.01. On the procedure:
For micronuclei visualization, cells were grown on coverslips placed in a 6-multiwell plate (5 × 10^5 cells/well). After a 72 h treatment with olaparib (10 μM) or 35d (20 μM) given alone or in combination, wells were rapidly washed with PBS and then fixed for 10 min with cold methanol. Coverslips were then air-dried and mounted on glass slides using a solution of DAPI (5 μg/mL)/DABCO. Images were acquired on a Nikon fluorescent microscope equipped with filters for DAPI. […] The percentage of cells bearing micronuclei was estimated by two independent observers, by analyzing 100–250 cells for each treatment sample.

SMILES strings stand for the structures. Read-outs that look alike come from different tables or passages of the source.

As to `CCC(=O)N1N=C(c2c(-c3ccccc3)c3cc(Cl)ccc3[nH]c2=O)CC1c1ccc(OC)cc1` (centres unmarked) [Compound 35d, 6-Chloro-3-(5-(4-methoxyphenyl)-1-propionyl-4,5-dihydro-1H-pyrazol-3-yl)-4-phenylquinolin-2(1H)-one], at recombinant human RAD51, the dissociation constant (Kd) was 11 ± 6 µM. Moreover, the “RAD51 nuclear foci in cisplatin-treated cells” value with RAD51 in BxPC-3 nuclei is reported as “significantly reduced”. Also, the EC50 amounted to 19 ± 1 µM at BRC4–RAD51 interaction (Table 2, compounds selected for cell-based study, read-out: EC50 ELISA) and 19 ± 1 µM at BRC4–RAD51 interaction (competition with BRC4 for RAD51, triplicate, ± standard deviation, NA = not active, racemic mixtures unless enantiomer named, read-out: EC50 (μM) on ELISA assay). For the same molecule, in the experiment on BxPC3 cells, the cells bearing micronuclei entry is “markedly more frequent”.

What is called Kd is the constant that tells how readily two partners part at equilibrium. For orientation: EC50 means the concentration that produces a half-maximal response.
